# Calls of active or inactive are those of the source. The rule behind the calls is not given here.
# Tests used:
# A2780 [1] = assay: Induction of DNA damage in human A2780 cells at 0.1 to 0.4 uM assessed as increase in p-H2AX levels and measured by Western blot analysis; format: functional, cell-based; conditions: dose 0.1-0.4 µM
# NCI-H460 [2] = assay: Induction of cell cycle arrest in human NCI-H460 cells assessed as accumulation of cells at sub-G1 phase at 0.26 uM after 72 hrs by flow cytometry (reference value: 1.1%); format: functional
# NCI-H460 [3] = assay: Induction of cell cycle arrest in human NCI-H460 cells assessed as accumulation of cells at G0/1 phase at 0.26 uM after 72 hrs by flow cytometry (reference value: 46.8%); format: functional
# NCI-H460 [4] = assay: Induction of cell cycle arrest in human NCI-H460 cells assessed as accumulation of cells at S phase at 0.26 uM after 72 hrs by flow cytometry (reference value: 32.1%); format: functional
# MM473 [5] = assay: Induction of cell cycle arrest in human MM473-Luc cells assessed as accumulation of cells at G0/1 phase at 1.4 uM after 72 hrs by flow cytometry (reference value: 74.7%); format: functional
# NCI-H460 [6] = assay: Down-regulation of POLA1 protein expression in human NCI-H460 cells at 0.26 uM measured by Western blot analysis; format: functional, cell-based
# [7] = Induction of cell cycle arrest in human H460-R9A cells assessed as accumulation of cells at sub-G1 phase at 2.2 uM after 72 hrs by flow cytometry (reference value: 1.5%); format: functional
# [8] = Induction of cell cycle arrest in human H460-R9A cells assessed as accumulation of cells at S phase at 2.2 uM after 72 hrs by flow cytometry (reference value: 34.5%); format: functional
# H460-R9A [9] = assay: Antiproliferative activity against human H460-R9A cells at 0.75 to 12 uM after 72 hrs by MTT assay; format: functional, cell-based; conditions: dose 0.75-12 µM
# H460-R9A [10] = assay: Antiproliferative activity against human H460-R9A cells at 0.75 to 12 uM in combination with SIS17 after 72 hrs by MTT assay; format: functional, cell-based; conditions: dose 0.75-12 µM
# NCI-H460 [11] = assay: Antitumor activity against human NCI-H460 cells xenografted in mouse assessed as tumor growth inhibition at 20 mg/kg, po qd administered […] for 3 to 4 weeks; format: functional; conditions: time 3-4 weeks, read-out: TGI
# [12] = Antitumor activity against human H460-R9A cells xenografted in mouse assessed as tumor growth inhibition at 20 mg/kg, po qd administered […] for 3 to 4 weeks; format: functional; conditions: time 3-4 weeks, read-out: TGI
# [13] = target: T1, Histone deacetylase 11 (Homo sapiens) (UniProt Q96DB2); assay: Inhibition of HDAC11 in human MM487 cells at 0.1 to 0.4 uM assessed as increase in p21 level and measured by Western blot analysis; format: cell-based; conditions: dose 0.1-0.4 µM
# T1 sequence (whole entry): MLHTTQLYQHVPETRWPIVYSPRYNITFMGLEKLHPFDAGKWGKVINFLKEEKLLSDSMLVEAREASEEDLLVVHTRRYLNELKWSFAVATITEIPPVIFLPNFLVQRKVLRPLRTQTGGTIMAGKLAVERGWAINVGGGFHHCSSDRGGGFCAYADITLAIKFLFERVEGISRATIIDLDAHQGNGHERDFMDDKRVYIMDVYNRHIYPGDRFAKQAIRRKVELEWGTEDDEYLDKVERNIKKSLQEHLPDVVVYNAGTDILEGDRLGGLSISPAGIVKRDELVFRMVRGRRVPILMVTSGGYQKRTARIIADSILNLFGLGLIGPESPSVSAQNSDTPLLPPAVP
# NCI-H460 [14] = assay: Induction of cell cycle arrest in human NCI-H460 cells assessed as accumulation of cells at sub-G1 phase at 0.25 uM after 72 hrs by flow cytometry (reference value: 1.1%); format: functional
# NCI-H460 [15] = assay: Induction of cell cycle arrest in human NCI-H460 cells assessed as accumulation of cells at S phase at 0.25 uM after 72 hrs by flow cytometry (reference value: 32.1%); format: functional
# NCI-H460 [16] = assay: Induction of cell cycle arrest in human NCI-H460 cells assessed as accumulation of cells at G2/M phase at 0.25 uM after 72 hrs by flow cytometry (reference value: 21.1%); format: functional
# A2780 [17] = assay: Induction of cell cycle arrest in human A2780 cells assessed as accumulation of cells at sub-G1 phase at 0.6 uM after 72 hrs by flow cytometry (reference value: 1.6%); format: functional
# A2780 [18] = assay: Induction of cell cycle arrest in human A2780 cells assessed as accumulation of cells at G0/1 phase at 0.6 uM after 72 hrs by flow cytometry (reference value: 48.7%); format: functional
# A2780 [19] = assay: Induction of cell cycle arrest in human A2780 cells assessed as accumulation of cells at G2/M phase at 0.6 uM after 72 hrs by flow cytometry (reference value: 15%); format: functional
# MM473 [20] = assay: Induction of cell cycle arrest in human MM473-Luc cells assessed as accumulation of cells at G0/1 phase at 1.2 uM after 72 hrs by flow cytometry (reference value: 74.7%); format: functional
# MM473 [21] = assay: Induction of cell cycle arrest in human MM473-Luc cells assessed as accumulation of cells at G2/M phase at 1.2 uM after 72 hrs by flow cytometry (reference value: 11.7%); format: functional
# [22] = Induction of cell cycle arrest in human H460-R9A cells assessed as accumulation of cells at sub-G1 phase at 2.8 uM after 72 hrs by flow cytometry (reference value: 1.5%); format: functional
# [23] = Induction of cell cycle arrest in human H460-R9A cells assessed as accumulation of cells at G2/M phase at 2.8 uM after 72 hrs by flow cytometry (reference value: 15.4%); format: functional
# NCI-H460 [24] = assay: Down-regulation of POLA1 mRNA expression in human NCI-H460 cells at 0.25 uM measured by qRT-PCR assay; format: functional, cell-based
# [25] = Toxicity in mouse xenografted with human NCI-H460 cells assessed as body weight loss at 50 mg/kg, po qd administered 5 times a week for 3 to 4 weeks; format: organism-based; conditions: in vivo, time 3-4 weeks
# NCI-H460 [26] = assay: Antitumor activity against human NCI-H460 cells xenografted in mouse assessed as tumor growth inhibition at 50 mg/kg, po qd administered 5 times a week for 3 to 4 weeks; format: functional; conditions: time 3-4 weeks, read-out: TGI
# [27] = Toxicity in mouse xenografted with human H460-R9A cells assessed as body weight loss at 50 mg/kg, po qd administered 5 times a week for 3 to 4 weeks; format: organism-based; conditions: in vivo, time 3-4 weeks
# [28] = Toxicity in mouse xenografted with human H460-R9A cells assessed as body weight loss at 50 mg/kg, po qd administered 5 times a week for 3 to 4 weeks in combination with cisplatin at 4 mg/kg, iv administered every 7 days for 4 weeks; format: organism-based; conditions: in vivo, time 3-4 weeks
# [29] = Antitumor activity against human H460-R9A cells xenografted in mouse assessed as tumor growth inhibition at 50 mg/kg, po qd administered 5 times a week for 3 to 4 weeks in combination with cisplatin at 4 mg/kg, iv administered every 7 days for 4 weeks; format: functional; conditions: time 3-4 weeks, read-out: TGI
# MM473 [30] = assay: Antitumor activity against human MM473 cells xenografted in mouse assessed as tumor growth inhibition at 50 mg/kg, po bid administered 5 times a week for 3 weeks; format: functional; conditions: MM473, 504 h, read-out: TGI
smiles,measurement,setting,value
CC(Oc1ccc(-c2ccc(C=CC(=O)O)cc2)cc1C12CC3CC(CC(C3)C1)C2)C(=O)NO (stereo not given),Activity,A2780 [1],Active
same,Activity,NCI-H460 [2],13.2%
same,Activity,NCI-H460 [3],10.9%
same,Activity,NCI-H460 [4],81.4%
same,Activity,MM473 [5],2.3%
same,Activity,NCI-H460 [6],Active
O=C(O)C=Cc1ccc(-c2ccc(O)c(C34CC5CC(CC(C5)C3)C4)c2)cc1,Activity,[7],26.7%
same,Activity,[8],63.4%
same,Activity,H460-R9A [9],Active
same,Activity,H460-R9A [10],Active
same,inhibition in vivo at 20 mg/kg,NCI-H460 [11],64%
same,inhibition in vivo at 20 mg/kg,[12],0%
O=C(O)C=Cc1ccc(-c2ccc(OCC(=O)NO)c(C34CC5CC(CC(C5)C3)C4)c2)cc1,inhibition,[13],Active
same,Activity,NCI-H460 [14],12.1%
same,Activity,NCI-H460 [15],80.9%
same,Activity,NCI-H460 [16],2.8%
same,Activity,A2780 [17],33.3%
same,Activity,A2780 [18],14.6%
same,Activity,A2780 [19],6.5%
same,Activity,MM473 [20],23%
same,Activity,MM473 [21],14.1%
same,Activity,[22],37.8%
same,Activity,[23],12.9%
same,Activity,NCI-H460 [24],Active
same,Activity,[25],0%
same,inhibition in vivo at 50 mg/kg,NCI-H460 [26],61%
same,Activity,[27],0%
same,Activity,[28],0%
same,inhibition in vivo at 50 mg/kg,[29],78%
same,inhibition in vivo at 50 mg/kg,MM473 [30],77%
